Values quoted from earlier work in patent US20130184245A1, “ENDOMETRIOSIS TREATMENT” (DRUGTECH CORPORATION, priority 2007, published 2013).
Like-named read-outs stand apart in the source and are kept apart here.

Tests used:
[1] = intravaginal danazol therapy
[2] = not given; remark: listed apart in the source
[3] = intravaginal gel, 100 to 200 mg/day
pelvic endometriosis [4] = conditions: vaginal ring containing 1000 mg danazol
[5] = vaginal suppository 100 mg/day versus per os 400 mg/day
endometriosis = conditions: daily administration of 5 mg danazol in suppository form
pelvic endometriosis [6] = tested on: pelvic endometriosis
[7] = tested on: women with endometriosis and chronic pelvic pain symptoms; conditions: intravaginal danazol therapy, 22 women
[8] = tested on: deeply infiltrating endometriosis
women with endometriosis [9] = conditions: intravaginal gel, 100 to 200 mg/day
women with endometriosis [10] = tested on: women with endometriosis

Compound	serum danazol levels (danazol 400 mg/day per os)	serum danazol levels (topical danazol administration (vaginal ring 1000 mg))	peripheral levels of danazol [1]	serum danazol concentrations ([2]; oral therapy with danazol at 400 mg/day)	serum danazol concentrations ([2]; vaginal danazol therapy (ring 1500 mg))	plasma levels of danazol [3]	efficacy in treating pelvic endometriosis (pelvic endometriosis [4])	danazol concentrations in the ovary and uterus, vaginal versus oral administration [5]	serum danazol concentration, vaginal versus oral administration [5]	effect on dyspareunia and dysmenorrhea (endometriosis)	women in whom conception was enabled while the ring was in place (pelvic endometriosis [6]; of 35 infertile women, vaginal ring 2000 to 3500 mg danazol)	effect on dysmenorrhea and pelvic endometriosis (pelvic endometriosis [6]; vaginal ring containing 2000 to 3500 mg danazol, 35 infertile women)	management of chronic pelvic pain secondary to pelvic endometriosis [7]	side effect profile, systemic androgen-like effects [7]	women in whom ovulation and conception occurred ([8]; out of 31 infertile women with deeply infiltrating endometriosis, vaginal ring 1500 mg)	time to elimination of dysmenorrhea ([8]; vaginal ring containing 1500 mg danazol) [months]	effect on chronic pelvic pain (women with endometriosis [9])	systemic androgenic side effects (women with endometriosis [9])	side effects such as seborrhea, acne and weight gain, versus oral (women with endometriosis [10]; vaginal administration)	effectiveness in reducing dyspareunia and dysmenorrhea versus oral gestrinone therapy (women with endometriosis [10]; vaginal route, women with endometriosis)
C#C[C@]1(O)CC[C@H]2[C@@H]3CCC4=Cc5oncc5C[C@]4(C)[C@H]3CC[C@@]21C [danazol, 17α-ethynyl-17β-hydroxy-4-androsteno[2,3-d]-isoxazole]	exceeded 100 ng/ml	undetectable	undetectable	high	undetectable	low to undetectable	very effective	comparable	much lower	remission	13	reduced dysmenorrhea and pelvic endometriosis	effective	paucity of systemic androgen-like effects	17	≤ 3	significantly reduced	lack of systemic androgenic side effects		
C#C[C@]1(O)CC[C@H]2[C@@H]3CCC4=CC(=O)CCC4=C3C=C[C@@]21CC [gestrinone, ethylnorgestrienone]																			significantly lower	equally effective
